{"source": "paper PMC5815658", "about": "(Journal of Medicinal Chemistry, 2017)", "key": {"[1]": {"molecular_target": "T1, CRBN-DDB1 complex (Homo sapiens, UniProt Q96SW2)", "T1 construct": "His6-ZZ-HRV3C (N); made in house; host or cells: Sf9 insect cells (baculovirus co-infection)", "test": "CRBN/DDB1 fluorescence polarization competition assay", "assay_type": "binding", "description": "CRBN/DDB1 Fluorescence Polarization Assay […]\nUnless otherwise stated, the aqueous assay buffer contained 0.02 M HEPES((4-(2-hydroxyethyl)-1-piperazineethanesulfonic acid)) pH 8.0, 0.15 M NaCl, 0.5 mM TCEP ((tris(2-carboxyethyl)phosphine)), 0.05% Tween 20. The assay was conducted using 384 well black plates (ProxiPlate F Plus, Perkin-Elmer, Massachusetts, USA).\nPlate Reader. […] Fluorescence […]\npolarization was measured in units of millipolarization (mP) and are background corrected. Data were plotted and analyzed using […]\nAll experiments were performed in triplicate unless otherwise stated. Values are quoted as the geometric […]\nEach graph is a representative example of a single biological repeat unless otherwise stated.\nCRBN/DDB1 Protein Expression & Purification\nProtein expression and purification methods adapted from Lopez-Girona et al.5 Full length human CRBN (accession number NM016302) was amplified by PCR & inserted downstream of the polyhedrin promoter of a pFBDM expression vector which had been modified to introduce a N-terminal His6-ZZ-HRV3C tag. Full length human DDB1 (accession number NM001923) was amplified by PCR with primers which introduced a C-terminal StrepTag and inserted downstream of the p10 promoter of a separate pFBDM expression vector. Baculoviruses were generated according to Bac-to-Bac protocols (Invitrogen) and used to co-infect Sf9 cells grown @ 27 °C in shaker flasks using Insect-XPRESS media (Lonza). Cells were harvested 48 hours post infection and frozen. For purification, pellets were thawed & resuspended in 5 volumes of Histrap buffer A (see below) and lysed […]\nSuperdex 200 (HiLoad 26/600), ResourceQ (6 mL) and finally a second Superdex 200 (HiLoad 26/600) column. All columns were from GE Healthcare and all purification steps were performed @ 4 °C. HisTrap buffer A: 50mM Tris (2-Amino-2-(hydroxymethyl)propane-1,3-diol), 500mM NaCl, 0.5mM TCEP ((tris(2-carboxyethyl)phosphine), 5% glycerol, pH 8.0. HisTrap Buffer B: + 250 mM imidazole. Superdex 200 buffer: 50mM Tris, 200mM NaCl, 0.5mM TCEP, 5% glycerol, pH 8.0. Resource Q buffer A: 50mM Tris, 0.5mM TCEP, 5% Glycerol, pH8.0. Resource Q buffer B + 1M NaCl.\nCalifornia, USA) to prepare CRBN/DDB1 concentrations from 0.1 to 500 nM in 10 µL final assay volume containing 5 nM FP- […]\npoint prior to analysis. The KD was calculated using non-linear regression and a one-site specific binding model.\nAnalysis of competition assay FP-probe bound fraction […]\nfb=probe bound fraction, KD=probe dissociation constant, L0=probe concentration, R0=protein concentration, Ki=ligand […]\nCRBN/DDB1 Competition Assay\nCompounds as solutions in DMSO were dispensed using an ECHO 550 Liquid Handler (Labcyte Inc).\nTracer controls (5 nM FP-probe S18 assay buffer only) and bound tracer controls (5 nM and 80 nM CRBN/DDB1) were included on each assay plate . Plates were incubated overnight at 4 °C before warming to room temperature and fluorescence polarization measured using an EnVision plate reader (Perkin -Elmer, Massachusetts, USA). IC 50 values […]\nTable S2. CRBN/DDB1 Control Compounds"}, "[2]": {"test": "PDP aqueous stability protocol", "details": "37 °C"}, "[3]": {"test": "LogD7.4 determination by RP-HPLC", "details": "pH 7.4"}, "[4]": {"test": "Kinetic solubility determination by RP-HPLC", "details": "PBS, pH 7.4, aqueous buffer, kinetic from dmso stock"}, "[5]": {"molecular_target": "T2, pirin (Homo sapiens, UniProt O00625)", "T2 sequence (O00625 1-290)": "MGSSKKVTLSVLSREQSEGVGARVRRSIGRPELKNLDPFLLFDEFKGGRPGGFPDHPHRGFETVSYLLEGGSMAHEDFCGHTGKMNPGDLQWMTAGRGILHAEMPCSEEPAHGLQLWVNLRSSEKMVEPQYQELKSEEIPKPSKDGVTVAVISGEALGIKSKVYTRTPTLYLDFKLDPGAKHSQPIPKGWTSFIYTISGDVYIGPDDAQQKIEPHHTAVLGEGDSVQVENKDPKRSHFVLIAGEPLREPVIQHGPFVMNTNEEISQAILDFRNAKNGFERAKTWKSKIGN", "test": "Pirin SPR (surface plasmon resonance) binding"}}, "note": "Like-named read-outs stand apart in the source and are kept apart here."}
{"smiles": "O=C1CCC(N2C(=O)c3cccc(OCCOCCOCCN4CCN(Cc5ccc6cc(C(=O)Nc7cc(NC(=O)c8ccc9c(c8)OCCO9)ccc7Cl)ccc6n5)CC4)c3C2=O)C(=O)N1", "note": "(stereo not shown) [PDP 16, N-(2-Chloro-5-(2,3-dihydrobenzo[b][1,4]dioxine-6-carboxamido)phenyl)-2-((4-(2-(2-(2-((2-(2,6-dioxopiperidin-3-yl)-1,3-dioxoisoindolin-4-yl)oxy)ethoxy)ethoxy)ethyl)piperazin-1-yl)methyl)quinoline-6-carboxamide]", "values": [{"measurement": "IC50", "setting": "[1]; CRBN/DDB1 FP IC50, single repeat N=2, best-fit value, variable slope four parameters", "value": 0.323, "unit": "µM"}, {"measurement": "IC50", "setting": "[1]; best-fit value, variable slope four parameters, read-out: CRBN/DDB1 FP IC50, single repeat N=1", "value": 0.715, "unit": "µM"}, {"measurement": "IC50", "setting": "[1]; best-fit value, variable slope four parameters, read-out: CRBN/DDB1 FP IC50, single repeat N=3", "value": 0.519, "unit": "µM"}, {"measurement": "Ki", "setting": "[1]; calculated from geometric mean CRBN-DDB1 IC50 and FP-probe KD", "value": 0.12, "unit": "µM"}, {"measurement": "IC50", "setting": "[1]; column statistics, read-out: CRBN/DDB1 FP pIC50, mean of 3 values (unrounded) (converted)", "value": 0.493, "unit": "µM"}, {"measurement": "IC50", "setting": "[1]; displacement of thalidomide derived fluorescent probe, geometric mean n = 3, read-out: CRBN/DDB1 FP IC50", "value": 0.49, "unit": "µM"}, {"measurement": "First-order decay rate constant", "setting": "[2]; pH 7.4 PBS, n=2, Figure S1", "value": 0.0038, "unit": "min⁻¹"}, {"measurement": "Half-life (aqueous stability)", "setting": "[2]; pH 7.4 phosphate buffer", "value": "~3", "unit": "h"}, {"measurement": "half-life at 100 µM", "setting": "[2]; phosphate buffer (PBS), pH 7.4, Half-life (aqueous stability), pH 7.4 phosphate buffer", "value": 3, "unit": "h"}, {"measurement": "chromatographic logD", "setting": "[3]", "value": 2.7}, {"measurement": "solubility kinetic at 120 min", "setting": "[4]", "value": 2, "unit": "µM"}, {"measurement": "Kd", "setting": "[5]; Pirin SPR KD, equilibrium analysis, one site specific binding model, geometric mean n = 3", "value": 0.055, "unit": "µM"}, {"measurement": "Kd", "setting": "[5]; Pirin SPR KD, representative single repeat, best-fit value, one site specific binding", "value": 0.0563, "unit": "µM"}, {"measurement": "Kd", "setting": "[5]; Pirin SPR pKD, mean of 3 values (unrounded), column statistics", "value": 0.0545, "unit": "µM"}, {"measurement": "Increase in affinity for recombinant pirin compared to PDP 10", "setting": "[5]; SPR", "value": 4.2, "unit": "fold"}, {"measurement": "Measured Rmax/Theoretical Rmax", "setting": "[5]; SPR", "value": 0.39}]}
